Like-named read-outs stand apart in the source and are kept apart here.
Tested on: Pythium ultimum
Assay: Pythium ultimum / liquid culture (seedling damping off)
Assay type: cell-based
Conditions: Globisporangium ultimum, read-out: disease control (inhibition of growth determined photometrically)
[1] = 200 ppm, potato dextrose broth, 24° C., 2-3 days after application

Row | Compound | inhibition at 200 ppm [1] [%] | inhibition at 200 ppm [%]
1 | O=C(NCc1ccccn1)c1ccc2c(c1)B(O)OC2 [Compound 52] | ≥ 80 | –
2 | O=C(NCCC(F)(F)F)c1cc2c(cc1Cl)COB2O [Compound 54] | ≥ 80 | –
3 | O=C(NC1CCSC1=O)c1cc2c(cc1Cl)COB2O (centres unmarked) [Compound 55] | ≥ 80 | –
4 | O=C(NCCc1ccc2c(c1)OCO2)c1cc2c(cc1Cl)COB2O [Compound 58] | ≥ 80 | –
5 | C#CC1(NC(=O)c2cc3c(cc2Cl)COB3O)CCCCC1 [Compound 62] | ≥ 80 | –
6 | O=C(NCC1CCCO1)c1cc2c(cc1Cl)COB2O (centres unmarked) [Compound 64] | ≥ 80 | –
7 | O=C(NCCCCl)c1cc2c(cc1F)COB2O [Compound 70] | ≥ 80 | –
8 | O=C(NCc1ccccc1)c1cc2c(cc1Cl)COB2O [Compound 71] | ≥ 80 | –
9 | O=C(NCCC(F)(F)F)c1cc2c(cc1F)COB2O [Compound 72] | ≥ 80 | –
10 | O=C(NCC1(O)CCCCC1)c1cc2c(cc1F)COB2O [Compound 74] | ≥ 80 | –
11 | CC(NC(=O)c1cc2c(cc1Cl)COB2O)c1ccccc1 (centres unmarked) [Compound 75] | ≥ 80 | –
12 | O=C(NC1CCSC1=O)c1cc2c(cc1F)COB2O (centres unmarked) [Compound 76] | ≥ 80 | –
13 | O=C(NCCc1cccs1)c1cc2c(cc1Cl)COB2O [Compound 81] | ≥ 80 | –
14 | O=C(NCCc1ccc2c(c1)OCO2)c1cc2c(cc1F)COB2O [Compound 82] | ≥ 80 | –
15 | O=C(NCCOc1ccccc1)c1cc2c(cc1Cl)COB2O [Compound 83] | ≥ 80 | –
16 | CS(=O)(=O)c1ccc(CNC(=O)c2cc3c(cc2F)COB3O)cc1 [Compound 86] | ≥ 80 | –
17 | COc1ccc(CNC(=O)c2cc3c(cc2Cl)COB3O)cc1 [Compound 91] | ≥ 80 | –
18 | O=C(NCCC1OCCO1)c1cc2c(cc1F)COB2O [Compound 92] | ≥ 80 | –
19 | O=C(NCc1ccc(-n2cccn2)cc1)c1cc2c(cc1Cl)COB2O [Compound 93] | ≥ 80 | –
20 | CSCCNC(=O)c1cc2c(cc1Cl)COB2O [Compound 101] | ≥ 80 | –
21 | O=C(NCc1ccc(Cl)nc1)c1cc2c(cc1Cl)COB2O [Compound 105] | ≥ 80 | –
22 | O=C(Nc1ccccc1Cl)c1cc2c(cc1Cl)COB2O [Compound 108] | ≥ 80 | –
23 | O=C(NCCc1ccccc1)c1cc2c(cc1F)COB2O [Compound 111] | ≥ 80 | –

Row | Compound | inhibition at 200 ppm [1] [%] | inhibition at 200 ppm [%]
24 | O=C(NCCc1cccs1)c1cc2c(cc1F)COB2O [Compound 115] | ≥ 80 | –
25 | O=C(NCCOc1ccccc1)c1cc2c(cc1F)COB2O [Compound 117] | ≥ 80 | –
26 | COc1ccc(NC(=O)c2cc3c(cc2Cl)COB3O)c(OC)c1 [Compound 118] | ≥ 80 | –
27 | O=C(Nc1cccc(F)c1)c1cc2c(cc1Cl)COB2O [Compound 120] | ≥ 80 | –
28 | O=C(NCc1ccc(-n2cccn2)cc1)c1cc2c(cc1F)COB2O [Compound 126] | ≥ 80 | –
29 | O=C(NCCc1c[nH]c2ccccc12)c1cc2c(cc1F)COB2O [Compound 130] | ≥ 80 | –
30 | CSCCNC(=O)c1cc2c(cc1F)COB2O [Compound 134] | ≥ 80 | –
31 | O=C(Nc1ccccc1-c1cc2ccccc2[nH]1)c1cc2c(cc1Cl)COB2O [Compound 135] | ≥ 80 | –
32 | CSc1nc(NC(=O)c2cc3c(cc2Cl)COB3O)n[nH]1 [Compound 149] | ≥ 80 | –
33 | Cc1cccnc1NC(=O)c1cc2c(cc1Cl)COB2O [Compound 151] | ≥ 80 | –
34 | O=C(Nc1cccc2ncccc12)c1cc2c(cc1F)COB2O [Compound 152] | ≥ 80 | –
35 | Cc1cc(O)nc(NC(=O)c2cc3c(cc2Cl)COB3O)n1 [Compound 153] | ≥ 80 | –
36 | Cc1onc(-c2ccccc2)c1NC(=O)c1cc2c(cc1Cl)COB2O [Compound 156] | ≥ 80 | –
37 | O=C(Nc1ccc(-n2cccc2)cc1)c1cc2c(cc1F)COB2O [Compound 159] | ≥ 80 | –
38 | O=C(Nc1cc(-c2ccccc2)[nH]n1)c1cc2c(cc1Cl)COB2O [Compound 160] | ≥ 80 | –
39 | Cc1nnc(NC(=O)c2cc3c(cc2Cl)COB3O)s1 [Compound 164] | ≥ 80 | –
40 | O=C(Nc1ccc2ncsc2c1)c1cc2c(cc1F)COB2O [Compound 166] | ≥ 80 | –
41 | Cc1cc(=O)oc2cc(NC(=O)c3cc4c(cc3F)COB4O)ccc12 [Compound 172] | ≥ 80 | –
42 | CN(C)S(=O)(=O)c1ccc(NC(=O)c2cc3c(cc2F)COB3O)cc1 [Compound 173] | ≥ 80 | –
43 | Cc1cc(NC(=O)c2cc3c(cc2F)COB3O)n(C)n1 [Compound 175] | ≥ 80 | –
44 | Cc1csc(NC(=O)c2cc3c(cc2F)COB3O)n1 [Compound 176] | ≥ 80 | –
45 | CSc1nc(NC(=O)c2cc3c(cc2F)COB3O)n[nH]1 [Compound 177] | ≥ 80 | –
46 | Cc1cc(O)nc(NC(=O)c2cc3c(cc2F)COB3O)n1 [Compound 178] | ≥ 80 | –

Row | Compound | inhibition at 200 ppm [1] [%] | inhibition at 200 ppm [%]
47 | Cc1onc(-c2ccccc2)c1NC(=O)c1cc2c(cc1F)COB2O [Compound 180] | ≥ 80 | –
48 | O=C(OCC1CCCO1)c1cc2c(cc1Cl)COB2O (centres unmarked) [Compound 212] | ≥ 80 | –
49 | Cn1cc(CCCOC(=O)c2cc3c(cc2Cl)COB3O)cn1 [Compound 219] | ≥ 80 | –
50 | O=C(OCCCC(=O)N1CCCC1)c1cc2c(cc1Cl)COB2O [Compound 220] | ≥ 80 | –
51 | COP(=O)(CCOC(=O)c1cc2c(cc1Cl)COB2O)OC [Compound 228] | – | ≥ 80
52 | O=C(OC1COC1)c1cc2c(cc1Cl)COB2O [Compound 234] | ≥ 80 | –
53 | O=C(OC1CCOC1)c1cc2c(cc1Cl)COB2O (centres unmarked) [Compound 235] | ≥ 80 | –
54 | COCCOCCOCCOC(=O)c1cc2c(cc1Cl)COB2O [Compound 239] | ≥ 80 | –
55 | O=C(NCCC(F)(F)F)c1ccc2c(c1)B(O)OC2 [Compound 246] | ≥ 80 | –
56 | O=C(NCC1(O)CCCCC1)c1ccc2c(c1)B(O)OC2 [Compound 247] | ≥ 80 | –
57 | CCOC(=O)C1CC=CCC1NC(=O)c1ccc2c(c1)B(O)OC2 (centres unmarked) [Compound 248] | ≥ 80 | –
58 | O=C(NCC(O)c1ccc(O)cc1)c1ccc2c(c1)B(O)OC2 (centres unmarked) [Compound 249] | ≥ 80 | –
59 | C#CC1(NC(=O)c2ccc3c(c2)B(O)OC3)CCCCC1 [Compound 254] | ≥ 80 | –
60 | O=C(NCCC1OCCO1)c1ccc2c(c1)B(O)OC2 [Compound 255] | ≥ 80 | –
61 | O=C(NCC1CCCO1)c1ccc2c(c1)B(O)OC2 (centres unmarked) [Compound 256] | ≥ 80 | –
62 | O=C(NCc1cccnc1)c1ccc2c(c1)B(O)OC2 [Compound 259] | ≥ 80 | –
63 | CC(NC(=O)c1ccc2c(c1)B(O)OC2)c1ccccc1 (centres unmarked) [Compound 263] | ≥ 80 | –
64 | O=C(NCc1ccc2c(c1)OCCO2)c1ccc2c(c1)B(O)OC2 [Compound 269] | ≥ 80 | –
65 | O=C(NCc1ccc(-n2cccn2)cc1)c1ccc2c(c1)B(O)OC2 [Compound 272] | ≥ 80 | –
66 | O=C(NCCc1c[nH]c2ccccc12)c1ccc2c(c1)B(O)OC2 [Compound 274] | ≥ 80 | –
67 | O=C(NCc1ccccc1C(F)(F)F)c1ccc2c(c1)B(O)OC2 [Compound 275] | ≥ 80 | –
68 | O=C(NCc1ccc(Cl)nc1)c1ccc2c(c1)B(O)OC2 [Compound 276] | ≥ 80 | –
69 | O=C(NCCN1CCN(Cc2ccccc2)CC1)c1ccc2c(c1)B(O)OC2 [Compound 278] | ≥ 80 | –

Row | Compound | inhibition at 200 ppm [1] [%] | inhibition at 200 ppm [%]
70 | Cc1cccc(Cl)c1NC(=O)c1ccc2c(c1)B(O)OC2 [Compound 281] | ≥ 80 | –
71 | O=C(Nc1ccc(-n2cccc2)cc1)c1ccc2c(c1)B(O)OC2 [Compound 287] | ≥ 80 | –
72 | COC(=O)c1cc2cc(NC(=O)c3ccc4c(c3)B(O)OC4)ccc2s1 [Compound 288] | ≥ 80 | –
73 | O=C(Nc1ccccc1N1CCOCC1)c1ccc2c(c1)B(O)OC2 [Compound 293] | ≥ 80 | –
74 | CN(C)S(=O)(=O)c1ccc(NC(=O)c2ccc3c(c2)B(O)OC3)cc1 [Compound 295] | ≥ 80 | –
75 | O=C(Nc1ccc(S(=O)(=O)Nc2ccccn2)cc1)c1ccc2c(c1)B(O)OC2 [Compound 296] | ≥ 80 | –
76 | Cc1cc(O)nc(NC(=O)c2ccc3c(c2)B(O)OC3)n1 [Compound 299] | ≥ 80 | –
77 | O=C(Nc1ccc2ccccc2n1)c1ccc2c(c1)B(O)OC2 [Compound 300] | ≥ 80 | –
78 | Cc1onc(-c2ccccc2)c1NC(=O)c1ccc2c(c1)B(O)OC2 [Compound 301] | ≥ 80 | –
79 | O=C(Nc1cc(-c2ccccc2)[nH]n1)c1ccc2c(c1)B(O)OC2 [Compound 303] | ≥ 80 | –
80 | Cc1nnc(NC(=O)c2ccc3c(c2)B(O)OC3)s1 [Compound 305] | ≥ 80 | –
81 | Cc1cc(C)c2c(NC(=O)c3ccc4c(c3)B(O)OC4)[nH]nc2n1 [Compound 309] | ≥ 80 | –
82 | CC(CN1CCOCC1)OC(=O)c1ccc2c(c1)B(O)OC2 (centres unmarked) [Compound 322] | ≥ 80 | –
83 | O=C(OCCCC(=O)N1CCCC1)c1ccc2c(c1)B(O)OC2 [Compound 346] | ≥ 80 | –
84 | CS(=O)(=O)CCOC(=O)c1ccc2c(c1)B(O)OC2 [Compound 358] | ≥ 80 | –
85 | O=C(OC1COC1)c1ccc2c(c1)B(O)OC2 [Compound 363] | ≥ 80 | –
86 | CC(CN1CCOCC1)OC(=O)c1cc2c(cc1F)COB2O (centres unmarked) [Compound 383] | ≥ 80 | –
87 | O=C(OCCCC(=O)N1CCCC1)c1cc2c(cc1F)COB2O [Compound 408] | ≥ 80 | –
88 | COP(=O)(CCOC(=O)c1cc2c(cc1F)COB2O)OC [Compound 416] | – | ≥ 80
89 | CS(=O)(=O)CCOC(=O)c1cc2c(cc1F)COB2O [Compound 421] | ≥ 80 | –
90 | O=C(OC1CCOC1)c1cc2c(cc1F)COB2O (centres unmarked) [Compound 426] | ≥ 80 | –
91 | O=C(OC1CCOCC1)c1cc2c(cc1F)COB2O [Compound 428] | ≥ 80 | –
92 | COCCOCCOCCOC(=O)c1cc2c(cc1F)COB2O [Compound 432] | ≥ 80 | –

— US20170000133A1, “BENZOXABOROLE FUNGICIDES” (SYNGENTA PARTICIPATIONS AG, priority 2013, published 2017)
